Measurements: patent US6046218A, “Pyridine derivative and medicament containing the same as an effective ingredient” (SS Pharmaceutical Co., Ltd., priority 1996, dated 2000)
Where a name gives a salt, the structure may show the parent alone.

Tests used:
Assay type in all cases: cell-based
IL-5 production = experiment: Test 3: inhibition of IL-5 production in human PBMC stimulated with ConA; conditions: 10^-6 M, 10 μg/ml ConA, 48 hours, read-out: Inhibition rate of IL-5 production
Description: Test 3: Test on the inhibition of IL-5 production
The peripheral blood was collected from a normal volunteer and peripheral blood mononuclear cells (PBMC) of the human peripheral blood were separated therefrom by the specific gravity centrifugation method. They were suspended in an AIM-V medium and their cell count was adjusted. To individual wells of a 96-well incubation plate, 1×10^6 cells/ml of PBMC were poured, followed by the addition of a stimulator (10 μg/ml of ConA) and a medicament. The resulting mixture was incubated in 5% CO2 at 37° C. for 48 hours. After incubation, 50 μl of the supernatant were collected and subjected to measurement by a human IL-5 EIA kit (BIO SOURCE, INC.). The inhibition rate was calculated according to the following formula. [formula]

IL-4 production [1] = experiment: Test 1: inhibition of IL-4 production in human T-cell strain ATL-16T(-) stimulated with PMA (R&D Systems EIA); conditions: ATL-16T(-) 1×10^6 cells/0.5 ml/well, 20 nM PMA, 48 hours, read-out: Inhibition rate of IL-4 production; for inhibition at 10 µM: 10^-5 M; for inhibition at 1 µM: 10^-6 M; for inhibition at 0.1 µM: 10^-7 M; for inhibition at 0.01 µM: 10^-8 M
Description: Test 1: Test on the inhibition of IL-4 production
(§1) Into individual wells of a 48-well microplate, the human T-cell strain ATL-16T(-) was poured at a concentration of 1×10^6 cells/0.5 ml/well (n=3), followed by the addition of a stimulator (20 nM of PMA) and a medicament at the same time. The resulting mixture was incubated in 5% CO2 at 37° C. for 48 hours. After incubation, 100 μl of the supernatant were collected and subjected to measurement by a human IL-4 EIA kit (R&D SYSTEMS, INC.). The inhibition rate was calculated according to the following formula. [formula]

IL-4 production [2] = experiment: Test 2: inhibition of IL-4 production in human T-cell strain ATL-16T(-) stimulated with PMA (Bio Source EIA); conditions: ATL-16T(-) 5×10^5 cells/0.5 ml/well, 20 nM PMA, 48 hours, read-out: Inhibition rate of IL-4 production; for inhibition at 10 µM: 10^-5 M; for inhibition at 1 µM: 10^-6 M; for inhibition at 0.1 µM: 10^-7 M; for inhibition at 0.01 µM: 10^-8 M
Description: Test 2: Test on the inhibition of IL-4 production
as §1, with “5×10^5” for “1×10^6”, “50” for “100”, “(BIO SOURCE,” for “(R&D SYSTEMS,”

COc1cnc(/C=C/C(=O)c2ccccc2)cc1OCCCC(=O)O [Ex. 33, 4-[5-methoxy-2-(3-oxo-3-phenyl-1-propenyl)-4-pyridyloxy]butanoic acid]
inhibition at 1 µM (IL-5 production): 72.1% | inhibition at 10 µM (IL-4 production [1]): 107% | inhibition at 1 µM (IL-4 production [1]): 93.9% | inhibition at 0.1 µM (IL-4 production [1]): 90% | inhibition at 0.01 µM (IL-4 production [1]): 86.1%

CCCCCC(O)/C=C/c1cc(OCCCCCC(=O)O)c(OC)cn1 (centres unmarked) [Ex. 35, 6-[2-(3-Hydroxy-1-octenyl)-5-methoxy-4-pyridyloxy]hexanoic acid]
inhibition at 1 µM (IL-5 production): 82.2% | inhibition at 10 µM (IL-4 production [1]): 90.3% | inhibition at 1 µM (IL-4 production [1]): 89.3% | inhibition at 0.1 µM (IL-4 production [1]): 82.5% | inhibition at 0.01 µM (IL-4 production [1]): 64.3%

COc1cc(/C=C/C(O)C2CCCC2)ncc1OCCCCCC(=O)O (centres unmarked) [Ex. 36, 6-[2-(3-Cyclopentyl-3-hydroxy-1-propenyl)-4-methoxy-5-pyridyloxy]hexanoic acid hydrochloride]
inhibition at 1 µM (IL-5 production): 86.5% | inhibition at 10 µM (IL-4 production [1]): 85.1% | inhibition at 1 µM (IL-4 production [1]): 78.9% | inhibition at 0.1 µM (IL-4 production [1]): 68.6% | inhibition at 0.01 µM (IL-4 production [1]): 37.6%

COc1cc(/C=C/C(=O)C2CCCC2)ncc1OCCCCCC(=O)O [Ex. 38, 6-[2-(3-Cyclopentyl-3-oxo-1-propenyl)-4-methoxy-5-pyridyloxy]hexanoic acid hydrochloride]
inhibition at 1 µM (IL-5 production): 88.7% | inhibition at 10 µM (IL-4 production [1]): 76.3% | inhibition at 1 µM (IL-4 production [1]): 68.9% | inhibition at 0.1 µM (IL-4 production [1]): 59% | inhibition at 0.01 µM (IL-4 production [1]): 42.4%

COc1cnc(/C=C/C(=O)c2ccccc2)cc1OC(=O)c1ccccc1 [Ex. 43, 4-benzoyloxy-5-methoxy-2-(3-oxo-3-phenyl-1-propenyl)pyridine]
inhibition at 1 µM (IL-5 production): 61.4% | inhibition at 10 µM (IL-4 production [1]): 80.8% | inhibition at 1 µM (IL-4 production [1]): 72.6% | inhibition at 0.1 µM (IL-4 production [1]): 70.3% | inhibition at 0.01 µM (IL-4 production [1]): 35.5%

CCOC(=O)COc1cc(/C=C/C(=O)c2ccccc2)ncc1OC [Ex. 45]
inhibition at 1 µM (IL-5 production): 64.3% | inhibition at 10 µM (IL-4 production [1]): 89.5% | inhibition at 1 µM (IL-4 production [1]): 86.4% | inhibition at 0.1 µM (IL-4 production [1]): 80.1% | inhibition at 0.01 µM (IL-4 production [1]): 74%

CCCCOc1cc(/C=C/C(=O)c2ccccc2)ncc1OC [Ex. 46, 4-Butoxy-5-methoxy-2-(3-oxo-3-phenyl-1-propenyl)pyridine]
inhibition at 1 µM (IL-5 production): 86.9% | inhibition at 10 µM (IL-4 production [1]): 76.6% | inhibition at 1 µM (IL-4 production [1]): 69.1% | inhibition at 0.1 µM (IL-4 production [1]): 33.8% | inhibition at 0.01 µM (IL-4 production [1]): 11.8%

COc1cnc(/C=C/C(=O)c2ccccc2)cc1OCC(=O)c1ccccc1 [Ex. 47, 5-Methoxy-4-(2-oxo-2-phenylethoxy)-2-(3-oxo-3-phenyl-1-propenyl)pyridine]
inhibition at 1 µM (IL-5 production): 67.2% | inhibition at 10 µM (IL-4 production [1]): 113% | inhibition at 1 µM (IL-4 production [1]): 89.6% | inhibition at 0.1 µM (IL-4 production [1]): 74.1% | inhibition at 0.01 µM (IL-4 production [1]): 58.9%

COCCOCOc1cc(/C=C/C(=O)c2ccccc2)ncc1OC [Ex. 48, 5-Methoxy-4-methoxyethoxymethoxy-2-(3-oxo-3-phenyl-1-propenyl)pyridine]
inhibition at 1 µM (IL-5 production): 62.2% | inhibition at 10 µM (IL-4 production [1]): 111% | inhibition at 1 µM (IL-4 production [1]): 74.7% | inhibition at 0.1 µM (IL-4 production [1]): 50.1% | inhibition at 0.01 µM (IL-4 production [1]): 7.6%

COc1cnc(/C=C/C(=O)c2ccccc2[N+](=O)[O-])cc1OC [Ex. 51, 4,5-Dimethoxy-2-[3-(2-nitrophenyl)-3-oxo-1-propenyl]pyridine]
inhibition at 10 µM (IL-4 production [2]): 102% | inhibition at 1 µM (IL-4 production [2]): 20.5% | inhibition at 0.1 µM (IL-4 production [2]): 30.1% | inhibition at 0.01 µM (IL-4 production [2]): 26.3% | inhibition at 1 µM (IL-5 production): 93.6%

COc1cnc(/C=C/C(=O)c2ccc([N+](=O)[O-])cc2)cc1OC [Ex. 52, 4,5-Dimethoxy-2-[3-(4-nitrophenyl)-3-oxo-1-propenyl]pyridine]
inhibition at 10 µM (IL-4 production [2]): 76.1% | inhibition at 1 µM (IL-4 production [2]): 48.9% | inhibition at 0.1 µM (IL-4 production [2]): 25.6% | inhibition at 0.01 µM (IL-4 production [2]): 11.6% | inhibition at 1 µM (IL-5 production): 64.2%

COc1cnc(/C=C/C(=O)c2ccc(Cl)cc2Cl)cc1OC [Ex. 53, 4,5-Dimethoxy-2-[3-(2,4-dichlorophenyl)-3-oxo-1-propenyl]pyridine]
inhibition at 10 µM (IL-4 production [2]): 105% | inhibition at 1 µM (IL-4 production [2]): 103% | inhibition at 0.1 µM (IL-4 production [2]): 16.7% | inhibition at 0.01 µM (IL-4 production [2]): 23.1% | inhibition at 1 µM (IL-5 production): 75%

COc1cnc(/C=C/C(=O)c2c(Cl)cccc2Cl)cc1OC [Ex. 54, 4,5-Dimethoxy-2-[3-(2,6-dichlorophenyl)-3-oxo-1-propenyl]pyridine]
inhibition at 10 µM (IL-4 production [2]): 101% | inhibition at 1 µM (IL-4 production [2]): 98.7% | inhibition at 0.1 µM (IL-4 production [2]): 24.2% | inhibition at 0.01 µM (IL-4 production [2]): 6.1% | inhibition at 1 µM (IL-5 production): 93.3%

COc1cnc(/C=C/C(=O)c2c(OC)cccc2OC)cc1O [Ex. 56, 4-Hydroxy-5-methoxy-2-[3-(2,6-dimethoxyphenyl)-3-oxo-1-propenyl]pyridine]
inhibition at 10 µM (IL-4 production [2]): 101% | inhibition at 1 µM (IL-4 production [2]): 53.7% | inhibition at 0.1 µM (IL-4 production [2]): 47.1% | inhibition at 0.01 µM (IL-4 production [2]): 42.1% | inhibition at 1 µM (IL-5 production): 79.8%

CCOC(=O)CCCOc1cc(/C=C/C(=O)c2ccccn2)ncc1OC [Ex. 70, Ethyl 4-[5-methoxy-2-(3-oxo-3-(2-pyridyl)-1-propenyl]-4-pyridyloxy]butanoate dih ydrochloride]
inhibition at 10 µM (IL-4 production [2]): 65.7% | inhibition at 1 µM (IL-4 production [2]): 64.3% | inhibition at 0.1 µM (IL-4 production [2]): 64% | inhibition at 0.01 µM (IL-4 production [2]): 60% | inhibition at 1 µM (IL-5 production): 81.4%

CCOC(=O)CCCOc1cc(/C=C/C(=O)c2cccnc2)ncc1OC [Ex. 71, Ethyl 4-[5-methoxy-2-(3-oxo-3-(3-pyridyl)-1-propenyl)-4-pyridyloxy]butanoate dih ydrochloride]
inhibition at 10 µM (IL-4 production [2]): 81.2% | inhibition at 1 µM (IL-4 production [2]): 69.1% | inhibition at 0.1 µM (IL-4 production [2]): 68.6% | inhibition at 0.01 µM (IL-4 production [2]): 61.9% | inhibition at 1 µM (IL-5 production): 93.3%

CCOC(=O)CCCOc1cc(/C=C/C(=O)c2ccncc2)ncc1OC [Ex. 72, Ethyl 4-[5-methoxy-2-(3-oxo-3-(4-pyridyl)-1-propenyl)-4-pyridyloxy]butanoate dih ydrochloride]
inhibition at 10 µM (IL-4 production [2]): 75.4% | inhibition at 1 µM (IL-4 production [2]): 73.7% | inhibition at 0.1 µM (IL-4 production [2]): 69.1% | inhibition at 0.01 µM (IL-4 production [2]): 68.8% | inhibition at 1 µM (IL-5 production): 84.1%

COc1cnc(/C=C/C(=O)C2CCCCC2)cc1OC [Ex. 73, 2-(3-Cyclohexyl-3-oxo-1-propenyl)-4,5-dimethoxypyridine hydrochloride]
inhibition at 10 µM (IL-4 production [2]): 86.9% | inhibition at 1 µM (IL-4 production [2]): 51.3% | inhibition at 0.1 µM (IL-4 production [2]): 21.4% | inhibition at 0.01 µM (IL-4 production [2]): 11.9% | inhibition at 1 µM (IL-5 production): 82.3%

COc1cnc(/C=C/C(=O)C2CCCCC2)cc1OC1CCCC1 [Ex. 74, 2-(3-Cyclohexyl-3-oxo-1-propenyl)-4-cyclopentyloxy-5-methoxypyridine]
inhibition at 10 µM (IL-4 production [2]): 81.6% | inhibition at 1 µM (IL-4 production [2]): 32.4% | inhibition at 0.1 µM (IL-4 production [2]): 27.7% | inhibition at 0.01 µM (IL-4 production [2]): 5.9% | inhibition at 1 µM (IL-5 production): 77.9%

CCOC(=O)CCCOc1cc(/C=C/C(=O)C2CCCCC2)ncc1OC [Ex. 76, Ethyl 4-[2-(3-cyclohexyl-3-oxo-1-propenyl)-5-methoxy-4-pyridyloxy]butanoatehydrochloride]
inhibition at 10 µM (IL-4 production [2]): 75.3% | inhibition at 1 µM (IL-4 production [2]): 70.5% | inhibition at 0.1 µM (IL-4 production [2]): 69.1% | inhibition at 0.01 µM (IL-4 production [2]): 67.7% | inhibition at 1 µM (IL-5 production): 91.2%

CCOC(=O)CCCCOc1cc(/C=C/C(=O)C2CCCCC2)ncc1OC [Ex. 78, Ethyl 5-[2-(3-cyclohexyl-3-oxo-1-propenyl)-5-methoxy-4-pyridyloxy]pentanoate hydrochloride]
inhibition at 10 µM (IL-4 production [2]): 71.1% | inhibition at 1 µM (IL-4 production [2]): 70.8% | inhibition at 0.1 µM (IL-4 production [2]): 68.5% | inhibition at 0.01 µM (IL-4 production [2]): 68.2% | inhibition at 1 µM (IL-5 production): 63.1%

CCOC(=O)CCCCCOc1cc(/C=C/C(=O)c2c(OC)cccc2OC)ncc1OC [Ex. 85, Ethyl 6-[5-methoxy-2-(3-(2,6-dimethoxyphenyl)-3-oxo-1-propenyl)-4-pyridyloxy]hexanoate hydrochloride]
inhibition at 10 µM (IL-4 production [2]): 86.3% | inhibition at 1 µM (IL-4 production [2]): 77.4% | inhibition at 0.1 µM (IL-4 production [2]): 77.1% | inhibition at 0.01 µM (IL-4 production [2]): 73.9% | inhibition at 1 µM (IL-5 production): 75.7%
